Target: Keap1/Nrf2 (Homo sapiens, UniProt Q14145)
Assay: Inhibition of Keap1 Kelch domain (unknown origin)/FITC-labelled-9mer Nrf2 (unknown origin) protein-protein interaction incubated for 30 mins by fluorescence polarisation assay

Keap1/Nrf2, sequence (Q16236 whole entry, the tested form may be a part): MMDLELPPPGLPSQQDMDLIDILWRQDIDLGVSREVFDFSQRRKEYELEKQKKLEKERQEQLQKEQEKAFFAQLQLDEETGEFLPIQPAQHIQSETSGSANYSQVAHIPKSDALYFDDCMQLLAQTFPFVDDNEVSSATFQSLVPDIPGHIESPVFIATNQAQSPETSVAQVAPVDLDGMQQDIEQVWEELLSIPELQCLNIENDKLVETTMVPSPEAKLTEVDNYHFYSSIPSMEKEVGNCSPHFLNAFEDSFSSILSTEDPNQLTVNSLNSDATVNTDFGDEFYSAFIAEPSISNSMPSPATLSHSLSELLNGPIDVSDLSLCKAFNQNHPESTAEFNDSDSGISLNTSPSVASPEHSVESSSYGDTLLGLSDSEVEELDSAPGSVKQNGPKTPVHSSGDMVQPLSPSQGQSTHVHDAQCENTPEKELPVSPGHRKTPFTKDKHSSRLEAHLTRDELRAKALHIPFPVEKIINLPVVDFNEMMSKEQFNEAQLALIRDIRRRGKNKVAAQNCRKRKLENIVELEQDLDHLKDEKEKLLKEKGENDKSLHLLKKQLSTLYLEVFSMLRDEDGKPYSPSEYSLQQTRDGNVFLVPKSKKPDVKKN
Keap1/Nrf2, sequence (Q14145 whole entry, the tested form may be a part): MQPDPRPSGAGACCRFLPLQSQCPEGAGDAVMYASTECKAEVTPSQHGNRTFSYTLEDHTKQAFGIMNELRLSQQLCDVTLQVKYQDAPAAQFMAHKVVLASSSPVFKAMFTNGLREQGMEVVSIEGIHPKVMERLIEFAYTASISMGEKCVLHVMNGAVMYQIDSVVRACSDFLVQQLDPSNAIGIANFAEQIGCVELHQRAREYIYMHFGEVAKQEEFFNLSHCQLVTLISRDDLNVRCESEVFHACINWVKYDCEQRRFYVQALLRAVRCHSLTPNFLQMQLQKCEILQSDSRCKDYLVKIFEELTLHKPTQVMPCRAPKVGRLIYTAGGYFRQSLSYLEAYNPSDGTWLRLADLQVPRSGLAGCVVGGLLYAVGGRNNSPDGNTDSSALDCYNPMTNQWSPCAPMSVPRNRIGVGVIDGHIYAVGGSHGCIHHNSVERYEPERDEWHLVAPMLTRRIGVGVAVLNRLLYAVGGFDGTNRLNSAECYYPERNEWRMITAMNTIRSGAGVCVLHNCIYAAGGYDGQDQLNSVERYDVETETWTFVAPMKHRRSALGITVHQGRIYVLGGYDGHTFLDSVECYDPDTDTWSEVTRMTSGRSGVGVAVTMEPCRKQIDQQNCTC

COc1ccc(S(=O)(=O)Nc2ccc(NS(=O)(=O)c3cccnc3)cc2)cc1
IC50: 31.5 µM

From ChEMBL document CHEMBL5360597, “Medicinal Chemistry Insights into the Development of Small-Molecule Kelch-Like ECH-Associated Protein 1-Nuclear Factor Erythroid 2-Related Factor 2 (Keap1-Nrf2) Protein-Protein Interaction Inhibitors” (J Med Chem, 2023)
